Source: paper doi:10.1101/2024.05.17.594698v1 (bioRxiv, 2024)
Where a SMILES comes first, the peptide text is derived from it.

How the values were obtained:
AMPK in human CD4+ Tsen = experiment: AMPK activity as ACC phosphorylation; format: cell-based; settings: 4 hours after DOS 10 µM treatment; Fig S3I right, blot number
[1] = system: primary human CD4+ T cells; experiment: DOS-FITC incorporation by flow cytometry; format: cell-based; settings: T cells depleted of all three sestrins by shRNAs; Fig 1F
AMPK1-His-tagged = AMPK1-His-tagged (Homo sapiens, UniProt Q13131); experiment: In vitro pull down with biotinylated DOS, recombinant tagged proteins; format: binding; settings: DOS-biotin 10 µM, streptavidin beads; Fig 1C
[2] = biological target: T1, ERK, JNK and p38 MAPK in Tsen sestrin 2 immunoprecipitates (sMACs) (Homo sapiens, UniProt P58004); experiment: ELISA-based in vitro kinase assay on sestrin 2 immunoprecipitates; format: biochemical; settings: DOS 10 µM, 30 minutes, ATP 200 μM; Fig 1I, n = 5 donors
T1 sequence (P58004 1-480): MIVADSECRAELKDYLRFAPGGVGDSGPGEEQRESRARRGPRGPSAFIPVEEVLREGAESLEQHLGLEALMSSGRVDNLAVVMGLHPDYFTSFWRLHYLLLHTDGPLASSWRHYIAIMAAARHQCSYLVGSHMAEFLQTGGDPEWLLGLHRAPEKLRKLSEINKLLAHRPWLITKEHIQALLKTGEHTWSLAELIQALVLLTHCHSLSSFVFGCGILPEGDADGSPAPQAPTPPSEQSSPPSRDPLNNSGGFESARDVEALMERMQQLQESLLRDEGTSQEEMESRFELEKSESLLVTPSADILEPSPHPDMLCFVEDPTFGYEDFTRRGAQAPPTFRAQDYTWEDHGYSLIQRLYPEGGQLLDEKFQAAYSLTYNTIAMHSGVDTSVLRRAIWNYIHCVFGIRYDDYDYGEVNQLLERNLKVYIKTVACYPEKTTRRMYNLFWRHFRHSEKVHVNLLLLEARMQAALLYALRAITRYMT

[3] = system: primary T cell sMAC composed of sestrin and MAPK kinases; experiment: Biotinylated DOS pull down from human CD4+ T cell extracts; format: binding; settings: overnight treatment, streptavidin IP, western blot, Fig 1H
H1N1 virus = settings: mouse, in vivo
[4] = system: recombinant sestrins (sestrin1-FLAG, sestrin2-FLAG); experiment: In vitro pull down with biotinylated DOS, recombinant tagged proteins; format: binding; settings: DOS-biotin 10 µM, streptavidin beads, anti-flag immunoblot; Fig 1C
[5] = Observation of autoimmunity in pre-clinical cohorts; format: in vivo; settings: large pre-clinical cohorts (over 400 animals)
[6] = system: telomerase in human CD4+ Tsen; experiment: Telomerase activity; format: cell-based; settings: Tsen 3 days after DOS treatment; Fig S4I, n = 5 donors
[7] = biological target: T2, GATOR/mTOR complex proteins (MIOS and WDR59) (Homo sapiens, UniProt Q6PJI9+Q9NXC5); experiment: Biotinylated DOS pull down from human CD4+ T cell extracts; format: binding; settings: overnight treatment, streptavidin IP, western blot, Fig 1H
T2 sequence (Q9NXC5 1-875): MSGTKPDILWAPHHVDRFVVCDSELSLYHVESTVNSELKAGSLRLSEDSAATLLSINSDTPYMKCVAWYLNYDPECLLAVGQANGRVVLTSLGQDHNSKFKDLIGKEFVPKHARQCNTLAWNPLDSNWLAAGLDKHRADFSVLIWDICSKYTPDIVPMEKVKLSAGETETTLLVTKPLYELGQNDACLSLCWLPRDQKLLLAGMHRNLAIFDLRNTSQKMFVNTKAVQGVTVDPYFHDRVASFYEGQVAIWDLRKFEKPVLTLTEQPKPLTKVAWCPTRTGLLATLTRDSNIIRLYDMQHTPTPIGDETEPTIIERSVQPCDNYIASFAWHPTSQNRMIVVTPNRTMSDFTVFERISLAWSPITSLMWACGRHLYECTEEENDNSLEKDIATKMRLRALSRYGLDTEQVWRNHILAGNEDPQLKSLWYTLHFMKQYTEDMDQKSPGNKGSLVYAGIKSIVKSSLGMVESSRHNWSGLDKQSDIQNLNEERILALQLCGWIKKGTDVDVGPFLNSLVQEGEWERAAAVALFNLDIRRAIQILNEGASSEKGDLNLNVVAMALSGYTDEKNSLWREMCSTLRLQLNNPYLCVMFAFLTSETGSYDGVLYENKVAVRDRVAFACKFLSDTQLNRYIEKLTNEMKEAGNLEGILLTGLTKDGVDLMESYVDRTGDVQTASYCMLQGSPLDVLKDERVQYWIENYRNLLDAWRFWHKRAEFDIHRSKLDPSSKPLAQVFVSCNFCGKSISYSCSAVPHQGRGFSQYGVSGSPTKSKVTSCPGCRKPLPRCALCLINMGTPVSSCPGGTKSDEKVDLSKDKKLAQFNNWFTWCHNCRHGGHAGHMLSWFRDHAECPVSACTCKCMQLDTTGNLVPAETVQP
T2 sequence (Q6PJI9 1-974): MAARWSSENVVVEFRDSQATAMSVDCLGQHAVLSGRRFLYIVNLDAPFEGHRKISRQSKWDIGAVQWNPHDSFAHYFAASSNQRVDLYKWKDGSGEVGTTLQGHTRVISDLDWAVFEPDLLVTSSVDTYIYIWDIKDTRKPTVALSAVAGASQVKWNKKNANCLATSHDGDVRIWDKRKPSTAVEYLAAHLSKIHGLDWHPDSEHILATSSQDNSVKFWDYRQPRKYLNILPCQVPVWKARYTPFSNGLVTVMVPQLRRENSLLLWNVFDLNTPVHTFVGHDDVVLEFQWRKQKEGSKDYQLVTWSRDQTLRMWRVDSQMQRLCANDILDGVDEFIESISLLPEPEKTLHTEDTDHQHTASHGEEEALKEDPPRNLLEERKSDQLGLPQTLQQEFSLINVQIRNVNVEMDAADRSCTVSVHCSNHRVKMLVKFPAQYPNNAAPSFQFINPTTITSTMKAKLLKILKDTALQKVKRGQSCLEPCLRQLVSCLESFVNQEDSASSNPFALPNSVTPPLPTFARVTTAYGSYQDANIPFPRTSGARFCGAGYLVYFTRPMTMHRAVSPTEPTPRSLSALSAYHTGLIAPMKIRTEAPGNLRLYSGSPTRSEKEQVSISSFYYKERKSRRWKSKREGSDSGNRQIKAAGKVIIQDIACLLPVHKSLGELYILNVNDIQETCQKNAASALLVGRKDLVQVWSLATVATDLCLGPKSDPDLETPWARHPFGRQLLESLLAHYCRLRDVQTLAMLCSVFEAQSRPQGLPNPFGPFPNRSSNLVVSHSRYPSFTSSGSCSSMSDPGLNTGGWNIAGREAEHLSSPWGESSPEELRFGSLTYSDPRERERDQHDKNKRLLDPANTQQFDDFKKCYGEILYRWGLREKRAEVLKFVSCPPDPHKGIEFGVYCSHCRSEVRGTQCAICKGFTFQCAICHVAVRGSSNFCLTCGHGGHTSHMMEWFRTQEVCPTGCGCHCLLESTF

human CD4+ T cells = experiment: Cellular toxicity by Annexin V / PI staining; format: cell-based; settings: DOS 10 µM; Fig S4J, n = 4 donors

Sequence of AMPK1-His-tagged (Q13131 whole entry): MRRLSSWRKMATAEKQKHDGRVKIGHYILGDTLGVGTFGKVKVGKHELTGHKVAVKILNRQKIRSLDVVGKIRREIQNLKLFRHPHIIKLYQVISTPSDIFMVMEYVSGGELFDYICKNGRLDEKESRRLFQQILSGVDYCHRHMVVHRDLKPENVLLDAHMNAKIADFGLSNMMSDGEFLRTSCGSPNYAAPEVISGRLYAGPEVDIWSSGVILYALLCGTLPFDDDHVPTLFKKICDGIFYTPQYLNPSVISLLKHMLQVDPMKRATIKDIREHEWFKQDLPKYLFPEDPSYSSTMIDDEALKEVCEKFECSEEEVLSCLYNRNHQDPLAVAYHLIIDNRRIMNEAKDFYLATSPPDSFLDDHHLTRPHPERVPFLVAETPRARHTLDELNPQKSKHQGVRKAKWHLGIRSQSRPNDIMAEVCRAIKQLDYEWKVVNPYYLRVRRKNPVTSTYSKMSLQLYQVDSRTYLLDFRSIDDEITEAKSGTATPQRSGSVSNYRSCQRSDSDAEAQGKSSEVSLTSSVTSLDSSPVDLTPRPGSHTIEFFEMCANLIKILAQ

Q: What does the source list for `CC[C@H](C)[C@@H]1NC(=O)[C@H](Cc2ccccc2)NC(=O)[C@H](C)NC(=O)[C@H](C(C)C)NC(=O)[C@@H]2CCCN2C1=O` [DOS] (cyclo(AFIPV))?
A: p-ACC/ACC by immunoblotting, fold change to untreated control set as 1 (AMPK in human CD4+ Tsen): 0.25; DOS entrance in sestrin-null T cells [1]: did not enter; Direct binding to recombinant AMPK (AMPK1-His-tagged): not AMPK; ERK, JNK and p38 MAPK kinase activity (autophosphorylation) in sMAC [2]: suppressed; Binding to primary T cell sMAC [3]: directly bound; Lung necrosis after H1N1 infection (H1N1 virus): no sign of lung necrosis; Direct binding to recombinant sestrins [4]: direct DOS binding to sestrins; Spontaneous autoimmunity [5]: yet to see any autoimmunity case; Telomerase activity [6]: not affected; Binding to GATOR/mTOR complex proteins [7]: not to GATOR/mTOR complex proteins; Cell damage or death (Annexin-propidium iodide staining) (human CD4+ T cells): did not cause cell damage or death
